Measured values published in PubChem BioAssay (NCI).
Where “and” joins values, the source holds several entries; their conditions need not be identical. Equal entries are not always repeated.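 Where inhibition never reached the appropriate level, the endpoint shown equals the highest concentration tested. Otherwise, values were interpolated linearly from a five-concentration, 48-hour dose response in 96-well plates. Here, GI50 denotes the concentration required for 50% inhibition of growth. TGI denotes the concentration required for complete inhibition of growth.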 Where a SMILES comes first, the peptide text is derived from it. [ ]: non-standard residue; d: D form. Orn = NCCC[CH](N)C(=O)O

How the values were obtained:
Test in all cases: NCI-60 cell line screen, 48 h
RPMI-8226 leukemia = system: RPMI-8226 leukemia
LOX IMVI melanoma = system: LOX IMVI melanoma
OVCAR-3 ovarian = system: OVCAR-3 ovarian
NCI-H226 lung = system: NCI-H226 lung
UACC-257 melanoma = system: UACC-257 melanoma
T-47D breast = system: T-47D breast
HOP-62 NSCLC = system: HOP-62 NSCLC
SNB-19 CNS = system: SNB-19 CNS
A549 NSCLC = system: A549 NSCLC
HCC-2998 colon = system: HCC-2998 colon

SMILES | GI50 (RPMI-8226 leukemia) | TGI (RPMI-8226 leukemia) | GI50 (LOX IMVI melanoma) | TGI (LOX IMVI melanoma) | GI50 (OVCAR-3 ovarian) | TGI (OVCAR-3 ovarian) | GI50 (NCI-H226 lung) | TGI (NCI-H226 lung) | GI50 (UACC-257 melanoma) | TGI (UACC-257 melanoma) | GI50 (T-47D breast) [nM] | TGI (T-47D breast) | GI50 (HOP-62 NSCLC) [nM] | TGI (HOP-62 NSCLC) | GI50 (SNB-19 CNS) [nM] | TGI (SNB-19 CNS) | GI50 (A549 NSCLC) | TGI (A549 NSCLC) | GI50 (HCC-2998 colon) [nM] | TGI (HCC-2998 colon)
O=C(Nc1cccc2ccccc12)c1cc2ccccc2cc1O | 1410 nM | 9220 nM | 2720 nM | 12200 nM | 2160 nM | 6850 nM | 2500 nM | 9420 nM | 1600 nM | 5030 nM | 2800 | 18700 nM | 3250 | 18100 nM | 3170 | > 100000 nM | 2520 nM | 8310 nM | 3500 | 13300 nM
Cc1ccc(S(=O)(=O)N2C/C(=C\c3cc(F)cc(F)c3)C(=O)/C(=C/c3cc(F)cc(F)c3)C2)cc1 | 36.2 nM | 254 nM | 175 nM | 339 nM | 408 nM | 1270 nM | 2420 nM |  | 583 nM | 2330 nM | 1770 | 6590 nM | 1500 | 4660 nM | 290 | 1100 nM | 2420 nM | 10100 nM | 632 | 1970 nM
Cc1cc(Cl)ccc1Nc1nc(C(F)(F)F)ccc1C(=O)N/N=C/c1c(Cl)cccc1Cl | 194 nM |  | 257 nM | > 100000 nM | 102 nM | 380 nM | 243 nM | 1740 nM | 393 nM | > 100000 nM | 331 | 1980 nM | 876 | > 27200 nM | 683 | > 56600 nM | 510 nM | > 100000 nM | 459 | > 100000 nM
Cc1cc(Cl)ccc1Nc1nc(C(F)(F)F)ccc1C(=O)N/N=C/c1ccc(F)cc1 | 1790 nM | 7370 nM | 1340 nM | 10600 nM | 491 nM | 2240 nM | 2360 nM | 7630 nM | 1330 nM | 3670 nM | 1600 | 7130 nM | 1680 | 6650 nM | 2110 | 12000 nM | 2080 nM | 6010 nM | 1100 | 4540 nM
COc1ccc(/C=C/C(=O)c2ccc(NC(=O)CSc3nnc(-c4cc(OC)c(OC)c(OC)c4)o3)cc2)cc1 | 1730 nM | 4310 nM | 320 nM | 1280 nM | 1780 nM | 3380 nM | 2670 nM | 5690 nM | 2160 nM | 4690 nM | 2050 | 5080 nM | 2130 | 4530 nM | 1780 | 3560 nM | 1840 nM | 3530 nM | 1880 | 3650 nM
Nc1nn(C(=O)Nc2ccc(Cc3ccccc3)cc2)c2ccccc12 | 1860 nM | 25800 nM | 477 nM | 16100 nM | 6230 nM | 63100 nM | 13500 nM | 58300 nM | 10000 nM | 50900 nM | 1550 | > 100000 nM | 13700 | 46500 nM | 22800 | > 100000 nM | 12900 nM | 48600 nM | 4270 | 35900 nM
CC(C)CC1NC(=O)C(CCCN)NC(=O)C(C(C)C)NC(=O)C2CCCN2C(=O)C(Cc2ccccc2)NC(=O)C(CC(C)C)NC(=O)C(CCCN)NC(=O)C(C(C)C)NC(=O)C2CCCN2C(=O)C(Cc2ccccc2)NC1=O (stereo unspecified) (cyclo(FPV[Orn]LFPV[Orn]L); configuration not given here) | < 3.25 nM and 11.4 nM | 30.9 nM and 185 nM | 10.1 nM and 22.1 nM | 47.4 nM and 54 nM | 10.3 nM and 32.2 nM | 211 nM and 1430 nM | 20.3 nM and 56.4 nM | 1030 nM and 1920 nM | 8.72 nM and 14.5 nM | 48 nM and 70.5 nM | < 3.25 | 433 nM and 1240 nM | 5.95 | 418 nM and 1310 nM | < 3.25 | 486 nM and 1380 nM | 9.14 nM and 16.2 nM | 149 nM and 1090 nM | < 3.25 | 1290 nM and 1740 nM
COc1ccc(OC)c(/C=C/c2cnnc3ccccc23)c1 |  | > 10000 nM |  | > 10000 nM |  | > 10000 nM |  | > 10000 nM |  | > 10000 nM |  | > 10000 nM |  | > 10000 nM |  | > 10000 nM |  | > 10000 nM |  | > 10000 nM
CCCNNC(=O)c1ccc(CNC(=O)/C=C/c2ccccc2)cc1 | 101 nM |  | 139 nM | 306 nM | 246 nM | 1800 nM | 314 nM | 2580 nM | 150 nM |  | 130 | 715 nM | 110 | > 100000 nM | 314 | > 100000 nM | 310 nM | > 100000 nM | 186 | 653 nM
CCNCCNc1cc(C2CCCC2)c(C#N)c2nc3ccccc3n12 | 2690 nM | 7350 nM | 1760 nM | 3300 nM | 1700 nM | 3180 nM | 3490 nM | 17500 nM | 2580 nM | 4740 nM | 2580 | 7140 nM | 3720 | 14900 nM | 6260 | 21100 nM | 3590 nM | 8220 nM | 3480 | 15300 nM
Cc1ccc(S(=O)(=O)C2=C3C(=C(c4ccccc4)c4ccccc43)CN(S(=O)(=O)c3ccc(C)cc3)C2)cc1 | 1410 nM | 7410 nM | 1120 nM | 2420 nM | 4340 nM | 18800 nM | 2570 nM | 7850 nM | 15800 nM | 37400 nM | 2910 | 31500 nM | 15400 | 51900 nM | 12900 | 55700 nM | > 100000 nM | > 100000 nM | 22500 | > 100000 nM
COc1ccc2oc(-c3ccc(Cl)cc3)c(N3CCN(C)CC3)c2c1 | 1250 nM | 4720 nM | 1610 nM | 3070 nM | 1950 nM | 4370 nM | 3160 nM | 14500 nM | 1680 nM | 3430 nM | 2320 | 6780 nM | 1820 | 3860 nM | 1970 | 5180 nM | 1830 nM | 3940 nM | 2020 | 4130 nM
N=C(N)c1ccc(-c2ccc(-c3ccco3)o2)cc1F | 1950 nM | 4680 nM | 1600 nM | 3050 nM | 3060 nM | 9770 nM | 2610 nM | 13600 nM | 1590 nM | 3080 nM | 2050 | 5540 nM | 2960 | 10400 nM | 2480 | 13400 nM | 3040 nM | 10600 nM | 1940 | 3800 nM
COC1(C)Cc2c(c(C)c(O)c3c2C(=O)C=C(Cl)C3=O)O1 (stereo unspecified) |  | 52100 nM |  | > 100000 nM |  | > 72800 nM |  | > 100000 nM |  | > 69500 nM |  | 36700 nM |  | > 100000 nM |  | > 100000 nM |  | > 100000 nM |  | > 100000 nM
CC(=O)/C=C/c1ccc(N(C)Cc2ccc(C(C)(C)C)cc2)cc1 | 53900 nM | 237000 nM | 78200 nM | 208000 nM | 126000 nM | 264000 nM | 149000 nM | 315000 nM | 143000 nM | 335000 nM | 47800 | 405000 nM | 194000 | 550000 nM | 218000 | 699000 nM | 156000 nM | 788000 nM | 149000 | 340000 nM
CCOC(=O)c1c2c(n3cccc(F)c13)C(=O)c1ncccc1C2=O | 1910 nM | 37300 nM | 93.2 nM | 1920 nM | 220 nM | 2420 nM | 510 nM | 5110 nM | 849 nM | 6370 nM | 3530 | 25200 nM | 49.4 | 5170 nM | 70.3 | 4490 nM | 217 nM | 1670 nM | 1290 | 15400 nM
